From patent US9518094B2 (priority 2010, dated 2016)
Values after ≈ are worked out from the molar mass of the structure shown. “Also recorded” adds a separate entry of the source. Read-outs that look alike come from different tables or passages of the source.

Columns and labels:
[1] = Solid form stability under ambient conditions; format: physicochemical
Description: Samples were prepared from Compound I Form A solids or from samples generated from these solids. Form designation for the materials was based on X-ray powder diffraction (XRPD). Care was taken to protect samples from light, unless stated otherwise. Prior to characterization, solids were stored as follows: Form A and Form B (may have contained Form A solids as well) under ambient conditions, Form E and Form H over desiccant in a freezer, Form C in contact with mother liquor in a refrigerator, Form D in contact with mother liquor in a freezer, and Form I in contact with mother liquor under ambient conditions or in a freezer. Due to apparent instability of Form D, all characterization data except solution proton nuclear magnetic resonance spectroscopy (H-NMR) were collected for Form D on the same day. Although the ^1H-NMR analysis was not run until a few days later, the solution for the analysis was prepared on the same day as the rest of the characterization.
A crystal prepared from cold acetone solution was indexed. The indexing solution was determined to be an orthorhombic unit cell with the following cell parameters and calculated volume: a=9.093, b=15.581, c=23.141 Å, V=3278.57(9) Å^3. The formula weight was determined to be 598.81 g/mol. The cell parameters are similar to the cell obtained from the Compound I Form J crystal structure. […]

patients [2] = experiment: Toxicity and adverse events in clinical studies of Compound I; details: early development; out of more than 450 patients
patients [3] = details: human, in vivo
[4] = Slurry interconversion of solid forms with Form A; format: physicochemical; details: slurry of the form together with Form A; resulting form (time)
[5] = Solubility assessment of Compound I Form A in solvents and solvent mixtures (visual observation); format: physicochemical
[6] = Form N solvent removal attempts (heating, vacuum drying, slurry), resulting form by XRPD; format: physicochemical; details: for XRPD result after vacuum drying: 43 mg, 42° C. vac dry 22 hours at 20 mTorr
Description: The resulting solids were characterized by proton NMR spectroscopy. […] Subsequently, the dried sample was characterized by DSC. The observed results are subject to the conditions used at the time of analysis. […] The remaining solids (43 mg) were dried for approximately 22 hours in a vacuum oven at approximately 42° C., at approximately 20 mTorr. The weight loss was not determined but the dried solids were characterized by XRPD.
Solids were recovered via vacuum filtration, washing with acetonitrile (4×1 mL). The solids were left on the filter under vacuum for several minutes to dry the solids. […] In another embodiment, 309.5 mg of solid were slurried in water (4 mL) for approximately 24.5 hours. Solids were recovered via vacuum filtration, washing with water (2×1 mL). The solids were left on the filter under vacuum for approximately 1.5 hours to dry the solids.

Which “Form conversion under ambient conditions” value ([1]; listed as Compound I Form I) does the source give for C/C=C1\NC(=O)[C@H]2CSSCC/C=C/[C@H](CC(=O)N[C@H](C(C)C)C(=O)N2)OC(=O)[C@H](C(C)C)NC1=O [Form I, romidepsin] here?
Its value is “converts to Form H”.

What does the source list for C/C=C1\NC(=O)[C@H]2CSSCC/C=C/[C@H](CC(=O)N[C@H](C(C)C)C(=O)N2)OC(=O)[C@H](C(C)C)NC1=O [Compound I, romidepsin]?
deaths during clinical investigations (patients [2]): 6; Severity of observed toxicities (patients [3]): mild to moderate; serial serum troponin levels and multiple gated acquisition (MUGA) scans (patients [3]): consistently normal

What does the source list for C/C=C1\NC(=O)[C@H]2CSSCC/C=C/[C@H](CC(=O)N[C@H](C(C)C)C(=O)N2)OC(=O)[C@H](C(C)C)NC1=O [Form A, romidepsin]?
Slurry interconversion [4]: Remains A; solubility ([5]; 2,2,2-trifluoroethanol (TFE), organic solvent or mixture, thermodynamic from solid, 2,2,2-trifluoroethanol (TFE), ambient temperature, reported values <= actual solubility, approximate, read-out: Solubility): > 100 mg/mL; solubility ([5]; 2,2,2-trifluoroethanol (TFE), ambient temperature, reported values <= actual solubility, approximate, listed as Compound I, Form A): 158.9 mg/mL (≈ 294 mM); solubility ([5]; 2-butanone (MEK), organic solvent or mixture, thermodynamic from solid, 2-Butanone (MEK), ambient temperature, reported values <= actual solubility, approximate, read-out: Solubility): 12.5 mg/mL (≈ 23.1 mM); solubility ([5]; (0.1:0.1) TFE:DCM, organic solvent or mixture, thermodynamic from solid, (0.1:0.1) TFE:DCM, ambient temperature, reported values <= actual solubility, approximate, read-out: Solubility): 97 mg/mL (≈ 179 mM); solubility ([5]; (0.5:0.1) acetone:DCM, organic solvent or mixture, thermodynamic from solid, (0.5:0.1) Acetone:DCM, ambient temperature, reported values <= actual solubility, approximate, read-out: Solubility): 38 mg/mL (≈ 70.3 mM); solubility ([5]; (1:0.1) 2-butanone:TFE, organic solvent or mixture, thermodynamic from solid, (1:0.1) 2-Butanone:TFE, ambient temperature, reported values <= actual solubility, approximate, read-out: Solubility): 20.6 mg/mL (≈ 38.1 mM); solubility ([5]; (1:0.1) toluene:TFE, organic solvent or mixture, thermodynamic from solid, (1:0.1) Toluene:TFE, ambient temperature, reported values <= actual solubility, approximate, read-out: Solubility): 21.4 mg/mL (≈ 39.6 mM); solubility ([5]; (1:0.2) acetonitrile (ACN):TFE, organic solvent or mixture, thermodynamic from solid, (1:0.2) Acetonitrile (ACN):TFE, ambient temperature, reported values <= actual solubility, approximate, read-out: Solubility): 17.9 mg/mL (≈ 33.1 mM); solubility ([5]; (1:0.2) ethanol:TFE, organic solvent or mixture, thermodynamic from solid, (1:0.2) Ethanol:TFE, ambient temperature, reported values <= actual solubility, approximate, read-out: Solubility): 16.3 mg/mL (≈ 30.1 mM); solubility ([5]; (1:0.5) dioxane:acetone, organic solvent or mixture, thermodynamic from solid, (1:0.5) Dioxane:Acetone, ambient temperature, reported values <= actual solubility, approximate, read-out: Solubility): 13.3 mg/mL (≈ 24.6 mM); solubility ([5]; (1:1) 2-propanol:acetone, 60 °C, organic solvent or mixture, thermodynamic from solid, (1:1) 2-Propanol:Acetone, hot plate set to 60° C., reported values <= actual solubility, approximate, read-out: Solubility): 11.5 mg/mL (≈ 21.3 mM); solubility ([5]; (1:1) ethanol/IPA, 70 °C, organic solvent or mixture, thermodynamic from solid, (1:1) Ethanol/IPA, hot plate set to 70° C., reported values <= actual solubility, approximate, read-out: Solubility): 28 mg/mL (≈ 51.8 mM); solubility ([5]; (1:3) ethanol/IPA, 70 °C, organic solvent or mixture, thermodynamic from solid, (l:3) Ethanol/IPA, hot plate set to 70° C., reported values <= actual solubility, approximate, read-out: Solubility): 10 mg/mL (≈ 18.5 mM); solubility ([5]; (1.5:0.5) water:DCM, aqueous with cosolvent or surfactant or cyclodextrin, thermodynamic from solid, (1.5:0.5) Water:DCM, ambient temperature, reported values <= actual solubility, approximate, read-out: Solubility): 12.4 mg/mL (≈ 22.9 mM); solubility ([5]; (1.5:0.8) ethyl acetate:acetone, organic solvent or mixture, thermodynamic from solid, (1.5:0.8) Ethyl Acetate:Acetone, ambient temperature, reported values <= actual solubility, approximate, read-out: Solubility): 8.9 mg/mL (≈ 16.5 mM); solubility ([5]; (1.5:1) heptane:DCM, 60 °C, organic solvent or mixture, thermodynamic from solid, (1.5:1) Heptane:DCM, hot plate set to 60° C., reported values <= actual solubility, approximate, read-out: Solubility): 8 mg/mL (≈ 14.8 mM); solubility ([5]; (1.5:1) methanol:TFE, 60 °C, organic solvent or mixture, thermodynamic from solid, (1.5:1) Methanol:TFE, hot plate set to 60° C., reported values <= actual solubility, approximate, read-out: Solubility): 8.7 mg/mL (≈ 16.1 mM); solubility ([5]; (4.5:3) isopropyl ether:ethanol, organic solvent or mixture, thermodynamic from solid, (4.5:3) Isopropyl Ether:Ethanol, ambient temperature, reported values <= actual solubility, approximate, read-out: Solubility): 6.8 mg/mL (≈ 12.6 mM); solubility ([5]; Acetone, ambient temperature, reported values <= actual solubility, approximate, listed as Compound I, Form A): 28.2 mg/mL (≈ 52.2 mM); solubility ([5]; Dichloromethane (DCM), ambient temperature, reported values <= actual solubility, approximate, listed as Compound I Form A): over 100 mg/ml; solubility ([5]; Dimethylformamide (DMF), ambient temperature, reported values <= actual solubility, approximate, listed as Compound I Form A): over 100 mg/ml; solubility ([5]; Dimethylformamide (DMF), ambient temperature, reported values <= actual solubility, approximate, listed as Compound I, Form A): 248.5 mg/mL (≈ 460 mM); solubility ([5]; acetone, organic solvent or mixture, thermodynamic from solid, Acetone, ambient temperature, reported values <= actual solubility, approximate, read-out: Solubility): 22.4 mg/mL (≈ 41.4 mM); solubility ([5]; chloroform, organic solvent or mixture, thermodynamic from solid, Chloroform, ambient temperature, reported values <= actual solubility, approximate, read-out: Solubility): 26.5 mg/mL (≈ 49 mM); solubility ([5]; ethanol (EtOH), organic solvent or mixture, thermodynamic from solid, Ethanol (EtOH), ambient temperature, reported values <= actual solubility, approximate, read-out: Solubility): 23.5 mg/mL (≈ 43.5 mM); solubility ([5]; isopropanol (IPA), organic solvent or mixture, thermodynamic from solid, Isopropanol (IPA), ambient temperature, reported values <= actual solubility, approximate, read-out: Solubility): 4.6 mg/mL (≈ 8.51 mM); solubility ([5]; majority of the solvents and solvent combinations tested, organic solvent or mixture, thermodynamic from solid, majority of solvent and solvent combinations tested, read-out: moderate solubility): > 10 mg/mL; solubility ([5]; nitromethane, organic solvent or mixture, thermodynamic from solid, Nitromethane, ambient temperature, reported values <= actual solubility, approximate, read-out: Solubility): 23.6 mg/mL (≈ 43.6 mM)

With C/C=C1\NC(=O)[C@H]2CSSCC/C=C/[C@H](CC(=O)N[C@@H](C(C)C)C(=O)N2)OC(=O)[C@H](C(C)C)NC1=O [Form D, romidepsin] as the compound, how does the “Form conversion under ambient conditions” value [1] read?
The value was “converts to Form A”.

What about the Slurry interconversion [4] of the same compound?
The Slurry interconversion was “A + D → A, trace C”.

For C/C=C1\NC(=O)[C@H]2CSSCC/C=C/[C@H](CC(=O)N[C@H](C(C)C)C(=O)N2)OC(=O)[C@H](C(C)C)NC1=O [Form B, romidepsin], which Slurry interconversion [4] is on record?
Its Slurry interconversion is “A + B → A (2 hrs)”.

For C/C=C1\NC(=O)[C@H]2CSSCC/C=C/[C@H](CC(=O)N[C@H](C(C)C)C(=O)N2)OC(=O)[C@H](C(C)C)NC1=O [Form N, romidepsin], which “XRPD result after heating” value ([6]; 10.3 mg, heated to 180° C. by DSC (crimped)) is on record?
Its value is “Form A + 2 weak peaks”.

What about the “XRPD result after vacuum drying” value [6] of the same compound?
The value was “unknown + Form N”.

And the “XRPD result after vacuum drying” value ([6]; listed as Compound I, Form N)?
The value was “contains XRPD peaks of Form N but exhibits additional unknown peaks”.

What about the “XRPD result after slurry” value ([6]; 152.4 mg, 1 mL acetonitrile, slurry 1 hour) of the same compound?
The value was “pattern T”.

And the “HR XRPD result after vacuum drying” value ([6]; 308.3 mg, RT vac dry 5 days at 5 mTorr)?
Its value is “exhibited Form N; also recorded: Form N + weak peak”.

What about the “HR XRPD result after slurry” value ([6]; 309.5 mg, 4 mL water, slurry 24.5 hours) of the same compound?
Its value is “a mixture of Forms C and A; also recorded: Forms C + A + peaks ^g”.

With C/C=C1\NC(=O)[C@H]2CSSCC/C=C/[C@H](CC(=O)N[C@H](C(C)C)C(=O)N2)OC(=O)[C@H](C(C)C)NC1=O [Form E, romidepsin] as the compound, how does the Slurry interconversion [4] read?
The Slurry interconversion was “A + E → A, trace E”.

For C/C=C1\NC(=O)[C@H]2CSSCC/C=C/[C@H](CC(=O)N[C@H](C(C)C)C(=O)N2)OC(=O)[C@H](C(C)C)NC1=O [Form C, romidepsin], which Slurry interconversion [4] is on record?
The Slurry interconversion was “A + C → A (2 hrs)”.
